# Reference: US10681908B2, “Molecules having pesticidal utility, and intermediates, compositions, and processes, related thereto” (Dow AgroSciences LLC, priority 2016, dated 2020)
# Assays:
# [1] = test system: Beet Armyworm (Spodoptera exigua, LAPHEG); experiment: Bioassay on Beet Armyworm (BAW), 128-well diet tray assay; type: in vivo; settings: for mortality at 50 µg/cm2: 168 h, 50 μg/cm^2 on artificial diet, second instar larvae, five to seven days, 25° C., read-out: BAW % Control (or Mortality) rating; for mortality at 0.05 µg/cm2: 0.05 μg/cm^2, Table CD2 comparative data; for mortality at 0.05 µg/cm2 / mortality at 0.5 µg/cm2 / mortality at 5 µg/cm2: read-out: Percent control (or mortality) BAW; for mortality at 0.5 µg/cm2: 0.5 μg/cm^2, Table CD2 comparative data; for mortality at 5 µg/cm2: 5 μg/cm^2, Table CD2 comparative data
# Procedure: (§1) Example A: Bioassays on Beet Armyworm (Spodoptera Exigua, LAPHEG) (“BAW”), Corn Earworm (Helicoverpa zea, HELIZE) (“CEW”), and Cabbage Looper (Trichoplusia ni, TRIPNI) (“CL”)
# (§2) Certain molecules disclosed in this document were tested against BAW, CEW, and CL using procedures described in the following examples. In the reporting of the results, the “BAW, CEW, & CL Rating Table” was used (See Table Section).
# Bioassays on BAW were conducted using a 128-well diet tray assay. One to five second instar BAW larvae were placed in each well (3 mL) of the diet tray that had been previously filled with 1 mL of artificial diet to which 50 μg/cm^2 of the test molecule (dissolved in 50 μL of 90:10 acetone-water mixture) had been applied (to each of eight wells) and then allowed to dry. Trays were covered with a clear self-adhesive cover and held at 25° C., 14:10 light-dark for five to seven days. Percent mortality was recorded for the larvae in each well; activity in the eight wells was then averaged. The results are indicated in the table entitled “Table ABC: Biological Results” (See Table Section).
# (§3) Bioassays on BAW and CL were conducted according to the procedures outlined in Example A: Bioassays on Beet Armyworm (“BAW”) and Cabbage Looper (“CL”) using the indicated concentrations.
# [2] = test system: Cabbage Looper (Trichoplusia ni, TRIPNI); experiment: Bioassay on Cabbage Looper (CL), 128-well diet tray assay; type: in vivo; settings: for mortality at 50 µg/cm2: 168 h, 50 μg/cm^2 on artificial diet, second instar larvae, five to seven days, 25° C., read-out: CL % Control (or Mortality) rating; for mortality at 0.05 µg/cm2: 0.05 μg/cm^2, Table CD2 comparative data; for mortality at 0.05 µg/cm2 / mortality at 0.5 µg/cm2 / mortality at 5 µg/cm2: read-out: Percent control (or mortality) CL; for mortality at 0.5 µg/cm2: 0.5 μg/cm^2, Table CD2 comparative data; for mortality at 5 µg/cm2: 5 μg/cm^2, Table CD2 comparative data
# Procedure: as §1, §2
# Bioassays on CL were conducted using a 128-well diet tray assay. One to five second instar CL larvae were placed in each well (3 mL) of the diet tray that had been previously filled with 1 mL of artificial diet to which 50 μg/cm^2 of the test molecule (dissolved in 50 μL of 90:10 acetone-water mixture) had been applied (to each of eight wells) and then allowed to dry. Trays were covered with a clear self-adhesive cover and held at 25° C., 14:10 light-dark for five to seven days. Percent mortality was recorded for the larvae in each well; activity in the eight wells was then averaged. The results are indicated in the table entitled “Table ABC: Biological Results” (See Table Section).
# as §3
Structure (SMILES),mortality at 50 µg/cm2 [1] [%],mortality at 50 µg/cm2 [2] [%],other results
"C[C@H](C[S+]([O-])CC(F)(F)F)NC(=O)c1ccc(/C(F)=C/C(c2ccc(Cl)c(Cl)c2)C(F)(F)F)cc1Br (stereo partly drawn) [F66, 2-Bromo-4-((Z)-3-(3,4-dichlorophenyl)-1,4,4,4-tetrafluorobut-1-en-1-yl)-N-((2R)-1-((2,2,2-trifluoroethyl)sulfinyl)propan-2-yl)benzamide]",50 to 100,50 to 100,–
"C[C@H](CS(=O)(=O)CC(F)(F)F)NC(=O)c1ccc(/C(F)=C/C(c2cc(F)c(Cl)c(C(F)(F)F)c2)C(F)(F)F)cc1C(F)(F)F (stereo partly drawn) [F71, 4-((Z)-3-(4-Chloro-3-fluoro-5-(trifluoromethyl)phenyl)-1,4,4,4-tetrafluorobut-1-en-1-yl)-N—((R)-1-((2,2,2-trifluoroethyl)sulfonyl)propan-2-yl)-2-(trifluoromethyl)benzamide]",50 to 100,50 to 100,–
"C[C@H](CS(=O)(=O)CC(F)(F)F)NC(=O)c1ccc(/C(F)=C/C(c2ccc(OC(F)(F)F)c(Cl)c2)C(F)(F)F)cc1C(F)(F)F (stereo partly drawn) [F109, 4-((Z)-3-(3-Chloro-4-(trifluoromethoxy)phenyl)-1,4,4,4-tetrafluorobut-1-en-1-yl)-N—((R)-1-((2,2,2-trifluoroethyl)sulfonyl)propan-2-yl)-2-(trifluoromethyl)benzamide]",50 to 100,50 to 100,–
"C[C@H](CS(=O)(=O)CC(F)(F)F)NC(=O)c1ccc(/C(F)=C/[C@H](c2cc(Cl)c(Cl)c(Cl)c2)C(F)(F)F)cc1C(F)(F)F [F72, 4-((R,Z)-1,4,4,4-tetrafluoro-3-(3,4,5-trichlorophenyl)but-1-en-1-yl)-N—((R)-1-((2,2,2-trifluoroethyl)sulfonyl)propan-2-yl)-2-(trifluoromethyl)benzamide]",50 to 100,50 to 100,–
"C[C@H](CS(=O)(=O)CC(F)(F)F)NC(=O)c1ccc(/C(F)=C/C(c2cc(Cl)cc(C(F)(F)F)c2)C(F)(F)F)cc1C(F)(F)F (stereo partly drawn) [F81, 4-((Z)-3-(3-Chloro-5-(trifluoromethyl)phenyl)-1,4,4,4-tetrafluorobut-1-en-1-yl)-N—((R)-1-((2,2,2-trifluoroethyl)sulfonyl)propan-2-yl)-2-(trifluoromethyl)benzamide]",50 to 100,50 to 100,–
"C[C@H](CSCCF)NC(=O)c1ccc(/C(F)=C/C(c2cc(Cl)c(Cl)c(Cl)c2)C(F)(F)F)cc1C(F)(F)F (stereo partly drawn) [F84, N—((R)-1-((2-Fluoroethyl)thio)propan-2-yl)-4-((Z)-1,4,4,4-tetrafluoro-3-(3,4,5-trichlorophenyl)but-1-en-1-yl)-2-(trifluoromethyl)benzamide]",50 to 100,50 to 100,–
CCSC[C@@H](C)NC(=O)c1ccc(/C(F)=C/C(c2cc(Cl)c(Br)c(Cl)c2)C(F)(F)F)cc1C(F)(F)F (stereo partly drawn) [F48],50 to 100,50 to 100,–
"C=C(C)c1cc(C(/C=C(\F)c2ccc(C(=O)N[C@H](C)CS(=O)(=O)CC(F)(F)F)c(C(F)(F)F)c2)C(F)(F)F)cc(Cl)c1Cl (stereo partly drawn) [F114, 4-((Z)-3-(3,4-Dichloro-5-(prop-1-en-2-yl)phenyl)-1,4,4,4-tetrafluorobut-1-en-1-yl)-N—((R)-1-((2,2,2-trifluoroethyl)sulfonyl)propan-2-yl)-2-(trifluoromethyl)benzamide]",50 to 100,50 to 100,–
"C[C@H](CS(=O)(=O)CC(F)F)NC(=O)c1ccc(/C(F)=C/C(c2cc(Cl)c(Cl)c(Cl)c2)C(F)(F)F)cc1C(F)(F)F (stereo partly drawn) [F129, N—((R)-1-((2,2-difluoroethyl)sulfonyl)propan-2-yl)-4-((Z)-1,4,4,4-tetrafluoro-3-(3,4,5-trichlorophenyl)but-1-en-1-yl)-2-(trifluoromethyl)benzamide]",50 to 100,50 to 100,–
"C[C@H](CSCC(F)(F)F)NC(=O)c1ccc(/C(F)=C/C(c2cc(Cl)c(Cl)c(Cl)c2)C(C)(F)F)cc1 (stereo partly drawn) [FC2, 4-((Z)-1,4,4-Trifluoro-3-(3,4,5-trichlorophenyl)pent-1-en-1-yl)-N—((R)-1-((2,2,2-trifluoroethyl)thio)propan-2-yl)benzamide]",–,–,mortality at 0.05 µg/cm2 [1]: 0%; mortality at 0.5 µg/cm2 [1]: 20%; mortality at 5 µg/cm2 [1]: 100%; mortality at 0.05 µg/cm2 [2]: 0%; mortality at 0.5 µg/cm2 [2]: 0%; mortality at 5 µg/cm2 [2]: 100%
"C=Cc1c(Cl)cc(C(/C=C(\F)c2ccc(C(=O)N[C@H](C)CSCC)c(C(F)(F)F)c2)C(F)(F)F)cc1Cl (stereo partly drawn) [F47, 4-((Z)-3-(3,5-Dichloro-4-vinylphenyl)-1,4,4,4-tetrafluorobut-1-en-1-yl)-N—((R)-1-(ethylthio)propan-2-yl)-2-(trifluoromethyl)benzamide]",50 to 100,50 to 100,–
"C[C@H](CS(=O)(=O)CC(C)(F)F)NC(=O)c1ccc(/C(F)=C/C(c2cc(Cl)c(Cl)c(Cl)c2)C(F)(F)F)cc1C(F)(F)F (stereo partly drawn) [F97, N—((R)-1-((2,2-difluoropropyl)sulfonyl)propan-2-yl)-4-((Z)-1,4,4,4-tetrafluoro-3-(3,4,5-trichlorophenyl)but-1-en-1-yl)-2-(trifluoromethyl)benzamide]",50 to 100,50 to 100,–
"C=Cc1cc(Cl)cc(C(/C=C(\F)c2ccc(C(=O)N[C@H](C)CS(=O)(=O)CC(F)(F)F)c(C(F)(F)F)c2)C(F)(F)F)c1 (stereo partly drawn) [F112, 4-((Z)-3-(3-Chloro-5-vinylphenyl)-1,4,4,4-tetrafluorobut-1-en-1-yl)-N—((R)-1-((2,2,2-trifluoroethyl)sulfonyl)propan-2-yl)-2-(trifluoromethyl)benzamide]",50 to 100,50 to 100,–
"C[C@H](CS(=O)(=O)CC(F)(F)F)NC(=O)c1ccc(/C(F)=C/C(c2ccc(Cl)c(F)c2)C(F)(F)F)cc1C(F)(F)F (stereo partly drawn) [PF4, 4-((Z)-3-(4-Chloro-3-fluorophenyl)-1,4,4,4-tetrafluorobut-1-en-1-yl)-N—((R)-1-((2,2,2-trifluoroethyl)sulfonyl)propan-2-yl)-2-(trifluoromethyl)benzamide]",50 to 100,50 to 100,–
"C[C@H](CSCC(F)F)NC(=O)c1ccc(/C(F)=C/C(c2cc(Cl)c(Cl)c(Cl)c2)C(F)(F)F)cc1C(F)(F)F (stereo partly drawn) [F82, N—((R)-1-((2,2-Difluoroethyl)thio)propan-2-yl)-4-((Z)-1,4,4,4-tetrafluoro-3-(3,4,5-trichlorophenyl)but-1-en-1-yl)-2-(trifluoromethyl)benzamide]",50 to 100,50 to 100,–
C=Cc1cc(/C(F)=C/C(c2cc(Cl)c(Cl)c(Cl)c2)C(F)(F)F)ccc1C(=O)N[C@H](C)CS(=O)(=O)CC(F)(F)F (stereo partly drawn) [F116],50 to 100,50 to 100,–
"C[C@H](CSCC(F)(F)F)NC(=O)c1ccc(/C(F)=C/C(c2cc(Cl)c(Cl)c(Cl)c2)C(F)(F)F)cc1Cl (stereo partly drawn) [F10, 2-Chloro-4-((Z)-1,4,4,4-tetrafluoro-3-(3,4,5-trichlorophenyl)but-1-en-1-yl)-N—((R)-1-((2,2,2-trifluoroethyl)thio)propan-2-yl)benzamide]",50 to 100,50 to 100,mortality at 0.05 µg/cm2 [1]: 0%; mortality at 0.5 µg/cm2 [1]: 100%; mortality at 5 µg/cm2 [1]: 100%; mortality at 0.05 µg/cm2 [2]: 6%; mortality at 0.5 µg/cm2 [2]: 100%; mortality at 5 µg/cm2 [2]: 100%
"Cc1c(C(/C=C(\F)c2ccc(C(=O)N[C@H](C)CS(=O)(=O)CC(F)(F)F)c(C(F)(F)F)c2)C(F)(F)F)ccc(Cl)c1Cl (stereo partly drawn) [F132, 4-((Z)-3-(3,4-Dichloro-2-methylphenyl)-1,4,4,4-tetrafluorobut-1-en-1-yl)-N—((R)-1-((2,2,2-trifluoroethyl)sulfonyl)propan-2-yl)-2-(trifluoromethyl)benzamide]",50 to 100,50 to 100,–
"CC(CNC(=O)c1ccc(/C(F)=C/C(c2cc(Cl)c(Cl)c(Cl)c2)C(F)(F)F)cc1C(F)(F)F)[S+](C)[O-] (stereo not drawn) [F90, (Z)—N-(2-(Methylsulfinyl)propyl)-4-(1,4,4,4-tetrafluoro-3-(3,4,5-trichlorophenyl)but-1-en-1-yl)-2-(trifluoromethyl)benzamide]",50 to 100,50 to 100,–
